Values after ≈ are worked out from the molar mass of the structure shown. Values joined by “and” are separate entries in the source; they are usually repeats but may differ in a detail not shown here. Equal values may be shown once.
Legend:
Candida albicans [1] = test: CLSI broth microdilution MIC (Example 4); type: cell-based; conditions: for antifungal activity against the two isolates of Candida albicans: summary in words
Method: (§1) Antifungal minimum inhibitory concentration (MIC) testing was undertaken as recommended by the CLSI. Briefly, antifungal susceptibility tests were performed for amphotericin B, robenidine (NCL812) and robenidine (NCL) analogs (NCL004, NCL020, NCL023, NCL024, NCL062, NCL094, NCL097, NCL110, NCL113, NCL114, NCL115, NCL135, NCL139, NCL180, NCL181, NCL195, NCL219, NCL220, NCL228, NCL247, NCL250, NCL259, NCL260, NCL263, NCL265, NCL269, NCL274) by standard broth microdilution method (CLSI) in RPMI 1640. Various concentrations (ranging from high to low) of the selected compounds were prepared in RPMI 1640 medium by double dilution in 96-well microtitre plates. Each well contained an inoculum of approximately 2×10^3 cells/mL. The wells without addition of drugs served as negative (no inoculum) and positive (inoculum only) growth controls. Microtitre plates were incubated at 35° C. for 24-48 hours. […] Antifungal MICs were determined for each isolate in duplicate; if the values obtained were different, the MIC test was repeated a third time.

Cryptococcus neoformans [2] = test: CLSI broth microdilution MIC (Example 4); type: cell-based
Method: as §1

Candida albicans [3] = test: CLSI broth microdilution MIC (Example 5); type: cell-based
Method: as §1, with “robenidine” for “robenidine (NCL)”, “(NCL23, NCL24, NCL97,” for “(NCL004, NCL020, NCL023, NCL024, NCL062, NCL094, NCL097, NCL110,”, “NCL113,” for “NCL113, NCL114,”, “NCL115,” for “NCL115, NCL135, NCL139, NCL180, NCL181,”, “NCL220,” for “NCL220, NCL228, NCL247, NCL250,”, “NCL265)” for “NCL260, NCL263, NCL265, NCL269, NCL274)”

Cryptococcus neoformans [4] = test: CLSI broth microdilution MIC (Example 5); type: cell-based
Method: as §1, with “robenidine” for “robenidine (NCL)”, “(NCL23, NCL24, NCL97,” for “(NCL004, NCL020, NCL023, NCL024, NCL062, NCL094, NCL097, NCL110,”, “NCL113,” for “NCL113, NCL114,”, “NCL115,” for “NCL115, NCL135, NCL139, NCL180, NCL181,”, “NCL220,” for “NCL220, NCL228, NCL247, NCL250,”, “NCL265)” for “NCL260, NCL263, NCL265, NCL269, NCL274)”

Candida albicans [5] = test: CLSI broth microdilution MIC (Example 6); type: cell-based
Method: (§2) Antifungal minimum inhibitory concentration (MIC) testing was undertaken as recommended by the CLSI (1). Briefly, antifungal susceptibility tests were performed for amphotericin B, robenidine (NCL812) and 10 robenidine analogs (NCL023, NCL024, NCL097, NCL113, NCL115, NCL195, NCL219, NCL220, NCL259, NCL265) by standard broth microdilution method (CLSI) in RPMI 1640. Various concentrations (ranging from high to low) of the selected compounds were prepared in RPMI 1640 medium by double dilution in 96-well microtitre plates. Each well contained an inoculum of approximately 2×10^3 cells/mL. The wells without addition of drugs served as negative (no inoculum) and positive (inoculum only) growth controls. Microtitre plates were incubated at 35° C. for 24-48 hours. […] Antifungal MICs were determined for each isolate in duplicate; if the values obtained were different, the MIC test was repeated a third time.

Cryptococcus neoformans [6] = test: CLSI broth microdilution MIC (Example 6); type: cell-based
Method: as §2

C. gattii = test: CLSI broth microdilution MIC (Example 6); type: cell-based, Cryptococcus gattii
Method: as §2

[7] = tested on: Candida albicans ATCC14053; test: Broth micro-dilution screen at 16 μg/mL and MIC (Example 9); type: cell-based; conditions: for MIC: C. albicans ATCC14053, test range 0.25-64 μg/mL, duplicate; for Screen at 16 μg/mL: single concentration 16 μg/mL, Growth or No growth of C. albicans ATCC14053
Method: The antifungal activity of 201 NCL analogs against Candida albicans ATCC14053 in vitro was investigated. A broth micro-dilution method was used, according to CLSI guidelines as described. NCL analogs were dissolved in DMSO and originally screened at a single concentration of 16 μg/mL.

[8] = clinical isolate C. albicans 12-93301752 Azole Resistant
[9] = clinical isolate C. albicans 14-90045999 Azole Resistant
[10] = clinical isolate C. albicans 15-45171061
[11] = clinical isolate C. albicans 15-91329871
[12] = clinical isolate C. albicans 16-24136919 Azole Resistant
[13] = clinical isolate C. albicans 16-46177400
[14] = clinical isolate C. albicans 16-90050810
[15] = clinical isolate C. albicans 16-90054237
[16] = clinical isolate C. albicans 18-144-00196
[17] = clinical isolate C. albicans 18-148-08188 Azole Resistant
[18] = human clinical isolate C. neoformans var grubii 16-90050434
[19] = human clinical isolate C. neoformans var grubii 17-90028233
[20] = human clinical isolate C. neoformans var grubii 17-93996464
[21] = human clinical isolate C. neoformans var grubii 17-93996964
[22] = human clinical isolate C. gatti 17-90232099
[23] = human clinical isolate C. gattii 16-90050373
[24] = human clinical isolate C. gattii 17-90028211
[25] = human clinical isolate C. gattii 17-90028217
[26] = human clinical isolate C. gattii 17-90028242

SMILES | MIC at 24-48 hours (Candida albicans [1]; Candida albicans ATCC 90028) [µg/mL] | MIC at 24-48 hours (Candida albicans [1]; Candida albicans SA3) [µg/mL] | antifungal activity against the two isolates of Candida albicans (Candida albicans [1]) | MIC at 24-48 hours (Cryptococcus neoformans [2]; Cryptococcus neoformans SA1) [µg/mL] | MIC at 24-48 hours (Cryptococcus neoformans [2]; Cryptococcus neoformans SA2) [µg/mL] | MIC (Candida albicans [3]; C. albicans SA3) [µg/mL] | MIC (Candida albicans [3]; Candida albicans ATCC 90028) [µg/mL] | MIC (Candida albicans [3]; [8]) [µg/mL] | MIC (Candida albicans [3]; [9]) [µg/mL] | MIC (Candida albicans [3]; [10]) [µg/mL] | MIC (Candida albicans [3]; [11]) [µg/mL] | MIC (Candida albicans [3]; [12]) [µg/mL] | MIC (Candida albicans [3]; [13]) [µg/mL] | MIC (Candida albicans [3]; [14]) [µg/mL] | MIC (Candida albicans [3]; [15]) [µg/mL] | MIC (Candida albicans [3]; [16]) [µg/mL] | MIC (Candida albicans [3]; [17]) [µg/mL] | activity against one or more isolates of Cryptococcus neoformans and Candida albicans (Candida albicans [3]; summary in words) | MIC (Cryptococcus neoformans [4]; Cryptococcus neoformans SA1) [µg/mL] | MIC (Cryptococcus neoformans [4]; Cryptococcus neoformans SA2) [µg/mL] | other results
Nc1nc(NN=Cc2ccc(F)cc2)cc(NN=Cc2ccc(F)cc2)n1 [NCL220] | 32 (≈ 87.1 µM) | 32 (≈ 87.1 µM) | high antifungal activity | 2 (≈ 5.44 µM) | 4 (≈ 10.9 µM) | 32 (≈ 87.1 µM) | 32 (≈ 87.1 µM) | 4 (≈ 10.9 µM) | >16 | >16 | 8 (≈ 21.8 µM) | 4 (≈ 10.9 µM) | >16 | >16 | 8 (≈ 21.8 µM) | 8 (≈ 21.8 µM) | 4 (≈ 10.9 µM) | highly active | 2 (≈ 5.44 µM) | 4 (≈ 10.9 µM) | MIC (Candida albicans [5]; C. albicans SA3): 32 µg/mL (≈ 87.1 µM); MIC (Candida albicans [5]; Candida albicans ATCC 90028): 32 µg/mL (≈ 87.1 µM); MIC (Cryptococcus neoformans [6]; Cryptococcus neoformans SA1): 2 µg/mL (≈ 5.44 µM); MIC (Cryptococcus neoformans [6]; Cryptococcus neoformans SA2): 4 µg/mL (≈ 10.9 µM); MIC (Cryptococcus neoformans [6]; human clinical isolate C. neoformans serotype A/D hybrid): 32 µg/mL (≈ 87.1 µM); MIC (Cryptococcus neoformans [6]; [18]): 32 µg/mL (≈ 87.1 µM); MIC (Cryptococcus neoformans [6]; [19]): >32 µg/mL; MIC (Cryptococcus neoformans [6]; [20]): 32 µg/mL (≈ 87.1 µM); MIC (Cryptococcus neoformans [6]; [21]): 32 µg/mL (≈ 87.1 µM); MIC (C. gattii; [22]): 4 µg/mL (≈ 10.9 µM); MIC (C. gattii; [23]): >32 µg/mL; MIC (C. gattii; [24]): 32 µg/mL (≈ 87.1 µM); MIC (C. gattii; [25]): 4 µg/mL (≈ 10.9 µM); MIC (C. gattii; [26]): 32 µg/mL (≈ 87.1 µM); MIC [7]: >64 µg/mL; Screen at 16 μg/mL [7]: Growth
Cl.N=C(NN=Cc1cc(O)c(O)c(O)c1)NN=Cc1cc(O)c(O)c(O)c1 [NCL097] | 32 | 8 | high antifungal activity | 16 | 16 | 8 | 32 | 8 | 8 | 4 | 8 | 4 to 8 | 8 | 8 | 4 | 8 to 16 | 8 | highly active | 16 | 16 | activity against all tested isolates of Cryptococcus neoformans and Candida albicans (Candida albicans [3]; summary in words): active; MIC (Candida albicans [5]; C. albicans SA3): 8 µg/mL; MIC (Candida albicans [5]; Candida albicans ATCC 90028): 32 µg/mL; MIC (Cryptococcus neoformans [6]; Cryptococcus neoformans SA1): 16 µg/mL; MIC (Cryptococcus neoformans [6]; Cryptococcus neoformans SA2): 16 µg/mL; MIC (Cryptococcus neoformans [6]; human clinical isolate C. neoformans serotype A/D hybrid, listed as NCL97): 16 µg/mL and 32 µg/mL; MIC (Cryptococcus neoformans [6]; [18]): 16 to 32 µg/mL; MIC (Cryptococcus neoformans [6]; [19]): 32 µg/mL; MIC (Cryptococcus neoformans [6]; [20]): 32 µg/mL; MIC (Cryptococcus neoformans [6]; [21]): 32 µg/mL; MIC (C. gattii; [22]): 32 µg/mL; MIC (C. gattii; [23]): 16 µg/mL; MIC (C. gattii; [24]): 16 µg/mL; MIC (C. gattii; [25]): 32 µg/mL; MIC (C. gattii; [26]): 32 µg/mL; MIC [7]: 0.5 µg/mL; Screen at 16 μg/mL [7]: No growth
